The assay concerns the target T1, MARK2 (Homo sapiens, UniProt Q7KZI7).
T1 construct: purchased Thermo Fisher Scientific (Life Technologies) SelectScreen
Description: SelectScreen Z'LYTE. Format: biochemical. In outline: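 Percent values come from Thermo SelectScreen profiling of NU5455, combining activity and binding assays. CSF1R was run in Z'LYTE format at Km app ATP, and CAMK1 in Adapta format with ATP listed at 10.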

T1 sequence (Q7KZI7 whole entry): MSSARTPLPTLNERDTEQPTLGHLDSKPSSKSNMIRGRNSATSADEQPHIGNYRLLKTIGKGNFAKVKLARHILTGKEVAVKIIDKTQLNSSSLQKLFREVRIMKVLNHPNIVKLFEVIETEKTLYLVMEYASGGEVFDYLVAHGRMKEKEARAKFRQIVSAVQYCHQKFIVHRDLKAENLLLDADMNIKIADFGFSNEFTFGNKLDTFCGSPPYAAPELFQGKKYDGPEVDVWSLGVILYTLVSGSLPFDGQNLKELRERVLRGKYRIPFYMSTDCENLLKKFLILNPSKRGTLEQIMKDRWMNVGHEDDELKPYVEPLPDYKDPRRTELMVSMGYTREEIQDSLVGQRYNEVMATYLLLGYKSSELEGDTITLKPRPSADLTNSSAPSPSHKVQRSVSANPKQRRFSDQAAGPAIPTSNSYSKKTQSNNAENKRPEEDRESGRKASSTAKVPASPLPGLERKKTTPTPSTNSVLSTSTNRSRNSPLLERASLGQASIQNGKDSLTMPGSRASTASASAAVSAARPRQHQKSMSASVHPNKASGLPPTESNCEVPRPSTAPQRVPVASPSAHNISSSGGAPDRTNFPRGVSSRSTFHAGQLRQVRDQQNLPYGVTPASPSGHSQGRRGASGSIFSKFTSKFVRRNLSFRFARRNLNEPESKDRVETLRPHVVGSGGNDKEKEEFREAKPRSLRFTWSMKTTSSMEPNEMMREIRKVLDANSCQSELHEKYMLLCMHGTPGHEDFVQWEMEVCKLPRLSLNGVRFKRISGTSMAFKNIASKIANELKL

In the case of `CN(C(=O)CN1CCOCC1)c1ccc2sc3c(-c4cccc5c(=O)cc(N6CC7CCC(C6)O7)oc45)cccc3c2c1` [NU5455], 1 µM produced 0.1% inhibition.

Usually inhibition stands for the drop in the measured response relative to a control, in per cent.

Values taken from article PMC6934184, “Selective DNA-PKcs inhibition extends the therapeutic index of localized radiotherapy and chemotherapy” (The Journal of Clinical Investigation, 2019).
